Structures can show the parent of a compound that is named as a salt.
What was measured:
Type in all cases: cell-based, Human
Conditions in all cases: Drug 2 in combination with 6-(4-(tert-butyl)phenoxy)pyridin-3-amine (Drug 1), 72 hours
[1] = tested on: HCC1187 triple negative breast cancer cells; assay: alamarBlue combination screening with 6-(4-(tert-butyl)phenoxy)pyridin-3-amine, ZIP synergy analysis
Protocol: (§1) The kinase inhibitors listed in table 1 were used in combination with 6-(4-(tert-butyl) phenoxy)pyridin-3-amine.
(§2) Cells were treated with a combination of 6-(4-(tert-butyl) phenoxy)pyridin-3-amine (concentration range from 150 nM to […]) and chemical compounds listed in table 1 (concentration range from 75 nM to 20 μM) for 72 hours. Concentration range used for each compound was determined based on individual IC50 values i.e concentration range selected flanks IC50 value of each compound. Each of the 8 compounds were combined with 6-(4-(tert-butyl) phenoxy)pyridin-3-amine at different concentrations generating an 8×10 matrix in duplicates, alamarBlue® readout was taken using Infinite® F500 (Tecan) plate reader. All volumes (cells and alamarBlue®) were dispensed using Multidrop Combi dispenser using a standard cassette (Speed MEDIUM).
(§3) Compound management and dispensing: All compounds were prepared as stock solution at 10 mM in pure DMSO. […] To create 384 well working plates, different volumes of stock solutions were plated into 384 well plates by using ECHO 550 acoustic dispenser (Labcyte) to generate the final concentration of interest for each drug, either alone or in matrix combination.
(§4) alamarBlue® viability assay: alamarBlue® proliferation assays were performed to determine the growth kinetics of compound treated cells, alamarBlue® consists of a cell permeable substrate resazurin. In metabolically active and proliferating cells, resazurin is converted to resorufin due to an intrinsic reducing power of live cells and produces a red fluorescence. Therefore, production of resorufin serves as an indicator of the viability of the cell population. Proliferation assays were performed by seeding 1500 cells/well in 384 well plate format. Cells were treated in duplicates with pre-determined concentration of compounds as a single agent or in combination with 6-(4-(tert-butyl) phenoxy)pyridin-3-amine for 72 hours. To determine growth kinetics, alamarBlue® (Invitrogen) was added to each well and incubated for 4 hours, alamarBlue® readout was taken using Infinite® F500 (Tecan) plate reader.
(§5) Data analysis for combination screening: Synergistic interaction analysis was performed using SynergyFinder software as described by Ianevski A, He L, Aittokallio T, Tang J. Bioinformatics. […] To mitigate the impact of edge-effects, correction was applied for all analyses. Regions of interest were defined as concentration combination showing both synergistic interaction and significant absolute activity (>60%).

[2] = tested on: MCF-7 ER+ breast cancer cells; assay: as above
Protocol: as §1, §2, §3, §4, §5

RPMI-8402 leukemic cells [3] = assay: as above
Protocol: as §1, §2, §3, §4, §5

MV-4-11 leukemic cells = assay: PrestoBlue combination screening with 6-(4-(tert-butyl)phenoxy)pyridin-3-amine, ZIP synergy analysis
Protocol: (§6) Cell lines and drug combinations: Human T-ALL, AML and breast cancer cell lines RPMI-8402, MV-4-11 and HCC1187 were cultured under mycoplasma free conditions at 37° C. in RPMI-1640 media supplemented with 10% FCS (RPMI-8402 and HCC1187 cells) and IMDM media supplemented with 10% FCS (MV-4-11 cells). The kinase inhibitors listed in table 5 were used in combination with 6-(4-(tert-butyl) phenoxy)pyridin-3-amine.
(§7) 6-(4-(tert-butyl) phenoxy)pyridin-3-amine combination screening: Human cancer cells RPMI-8402, MV-4-11 and HCC1187 were seeded at a density of 10′000 cells/well in 96 well plate format and cultured in 100 μl of growth media. Cells were treated with a combination of 6-(4-(tert-butyl) phenoxy)pyridin-3-amine (concentration range from 30 nM to 100 μM) and chemical compounds listed in table 5 (concentration range from 1 μM to 100 μM) for 72 hours. Concentration range used for each compound was determined based on individual IC50 values i.e concentration range selected flanks IC50 value of each compound. Each of the 2 compounds were combined with 6-(4-(tert-butyl) phenoxy)pyridin-3-amine at different concentrations generating an 6×9 matrix in duplicates. PrestoBlue® readout was taken using Sense (Hidex) plate reader.
(§8) PrestoBlue® viability assay: PrestoBlue® proliferation assays were performed to determine the growth kinetics of compound treated cells. PrestoBlue® consists of a cell permeable substrate resazurin. In metabolically active and proliferating cells, resazurin is converted to resorufin due to an intrinsic reducing power of live cells and produces a red fluorescence. Therefore, production of resorufin serves as an indicator of the viability of the cell population. Proliferation assays were performed by seeding 10′000 cells/well in 96 well plate format. Cells were treated in triplicates (single agent) or duplicates (combinations) with pre-determined concentration of compounds as a single agent or in combination with 6-(4-(tert-butyl) phenoxy)pyridin-3-amine for 72 hours. To determine growth kinetics, PrestoBlue® (Invitrogen) was added to each well and incubated for 4 hours. PrestoBlue® readout was taken using Sense (Hidex) plate reader.
(§9) Data analysis for combination screening: Synergistic interaction analysis was performed using SynergyFinder software as described by Ianevski A, He L, Aittokallio T, Tang J. Bioinformatics. 2017 Aug. 1;33 (15): 2413-2415. doi: 10.1093/bioinformatics/btx162.SynergyFinder: a web application for analyzing drug combination dose-response matrix data). […] Regions of interest were defined as concentration combination showing both synergistic interaction and significant absolute activity (>60%).

[4] = tested on: HCC1187 triple negative breast cancer cells; assay: as above
Protocol: as §6, §7, §8, §9

RPMI-8402 leukemic cells [5] = assay: as above
Protocol: as §6, §7, §8, §9

| SMILES | Conclusion [1] | ZIP score [1] | Conclusion [2] | ZIP score [2] | Conclusion (RPMI-8402 leukemic cells [3]) | ZIP score (RPMI-8402 leukemic cells [3]) | Conclusion (MV-4-11 leukemic cells) | Conclusion [4] | Conclusion (RPMI-8402 leukemic cells [5]) | ZIP score (MV-4-11 leukemic cells) | ZIP score [4] | ZIP score (RPMI-8402 leukemic cells [5]) |
| --- | --- | --- | --- | --- | --- | --- | --- | --- | --- | --- | --- | --- |
| O=C(Nc1c[nH]nc1-c1nc2cc(CN3CCOCC3)ccc2[nH]1)NC1CC1 [AT9283, N-Cyclopropyl-N′-[3-[6-(4-morpholinylmethyl)-1H-benzimidazol-2-yl]-1H-pyrazol-4-yl]-urea] | Synergistic (>0 implies synergistic interaction) | 12.99 | Synergistic (>0 implies synergistic interaction) | 8.38 | Synergistic (>0 implies synergistic interaction) | 12.40 | – | – | – | – | – | – |
| CC#CC(=O)N1CCC[C@H]1c1nc(-c2ccc(C(=O)Nc3ccccn3)cc2)c2c(N)nccn12 [Acalabrutinib, 4-[8-amino-3-[(2S)-1-(1-oxo-2-butyn-1-yl)-2-pyrrolidinyl]imidazo[1,5-a]pyrazin-1-yl]-N-2-pyridinyl-benzamide] | Synergistic (>0 implies synergistic interaction) | 3.33 | Synergistic (>0 implies synergistic interaction) | 6.86 | Synergistic (>0 implies synergistic interaction) | 0.70 | – | – | – | – | – | – |
| CNC(=O)c1ccccc1Sc1ccc2c(/C=C/c3ccccn3)n[nH]c2c1 [Axitinib, N-Methyl-2-[[3-[(E)-2-pyridin-2-ylethenyl]-1H-indazol-6-yl]sulfanyl]benzamide] | – | – | – | – | – | – | Synergistic (>0 implies synergistic interaction) | Synergistic (>0 implies synergistic interaction) | Synergistic (>0 implies synergistic interaction) | – | – | – |
| Cn1c(=O)n(-c2ccc(C(C)(C)C#N)cc2)c2c3cc(-c4cnc5ccccc5c4)ccc3ncc21 [BEZ235, 4-[2,3-dihydro-3-methyl-2-oxo-8-(3-quinolinyl)-1H-imidazo[4,5-c]quinolin-1-yl]-a,a-dimethyl-benzeneacetonitrile] | Synergistic (>0 implies synergistic interaction) | 13.94 | Synergistic (>0 implies synergistic interaction) | 17.40 | Synergistic (>0 implies synergistic interaction) | 7.20 | – | – | – | – | – | – |
| C[C@@H](Oc1cc(-c2cnn(C3CCNCC3)c2)cnc1N)c1c(Cl)ccc(F)c1Cl [Crizotinib, 3-[(1R)-1-(2,6-dichloro-3-fluorophenyl)ethoxy]-5-[1-(4-piperidinyl)-1H-pyrazol-4-yl]-2-pyridinamine] | No (0 implies no interaction) | 0.10 | – | – | Synergistic (>0 implies synergistic interaction) | 2.38 | – | – | – | – | – | – |
| CC[C@H](Nc1ncnc2[nH]cnc12)c1nc2cccc(F)c2c(=O)n1-c1ccccc1 [Idelalisib, 5-Fluor-3-phenyl-2-{(1S)-1-[(7H-purin-6-yl)amino]propyl}chinazolin-4 (3H)-on] | – | – | – | – | Synergistic (>0 implies synergistic interaction) | 1.12 | – | – | – | – | – | – |
| COc1cc2nccc(Oc3ccc(NC(=O)NC4CC4)c(Cl)c3)c2cc1C(N)=O [Lenvatinib, 4-(3-chloro-4-(3-cyclopropylureido)phenoxy)-7-methoxyquinoline-6-carboxamide] | – | – | – | – | – | – | Synergistic (>0 implies synergistic interaction) | Synergistic (>0 implies synergistic interaction) | Synergistic (>0 implies synergistic interaction) | 5.9 | 11.2 | 41.4 |
| NC1(c2ccc(-c3nc4ccn5c(=O)[nH]nc5c4cc3-c3ccccc3)cc2)CCC1 [MK-2206, 8-[4-(1-aminocyclobutyl)phenyl]-9-phenyl-1,2,4-triazolo[3,4-f][1,6]naphthyridin-3 (2H)-one, dihydrochloride] | Synergistic (>0 implies synergistic interaction) | 14.89 | Synergistic (>0 implies synergistic interaction) | 16.97 | Synergistic (>0 implies synergistic interaction) | 8.51 | – | – | – | – | – | – |
| CO[C@H]1C[C@@H]2CC[C@@H](C)[C@@](O)(O2)C(=O)C(=O)N2CCCC[C@H]2C(=O)O[C@H]([C@H](C)C[C@@H]2CC[C@@H](OC(=O)C(C)(CO)CO)[C@H](OC)C2)CC(=O)[C@H](C)/C=C(\C)[C@@H](O)[C@@H](OC)C(=O)[C@H](C)C[C@H](C)/C=C/C=C/C=C/1C [Temsirolimus, 42-[3-Hydroxy-2-(hydroxymethyl)-2-methylpropanoate]-rapamycin] | Synergistic (>0 implies synergistic interaction) | 23.04 | Synergistic (>0 implies synergistic interaction) | 23.81 | Synergistic (>0 implies synergistic interaction) | 18.03 | – | – | – | – | – | – |
| CC(C)c1cc(CNc2nc(Nc3cc(C4CC4)[nH]n3)cc(N3CCN(C)CC3)n2)on1 [XL228, N4-(5-cyclopropyl-1H-pyrazol-3-yl)-N2-[[3-(1-methylethyl)-5-isoxazolyl]methyl]-6-(4-methyl-1-piperazinyl)-2,4-pyrimidinediamine] | Synergistic (>0 implies synergistic interaction) | 23.67 | Synergistic (>0 implies synergistic interaction) | 21.86 | Synergistic (>0 implies synergistic interaction) | 15.0 | – | – | – | – | – | – |
